{"source": "patent US20250263370A1", "about": "(Tay Therapeutics Limited, priority 2022, published 2025)", "key": {"CXCL10": {"tested_on": "CXCL10", "assay": "CXCL10 levels by ELISA in IFN-γ stimulated human peripheral blood mononuclear cells", "assay_type": "cell-based", "details": "human PBMC", "protocol": "The impact of Examples 23, 80, and 101 on IL-17A, IL-22, and CXCL10 levels was analyzed in cryopreserved human peripheral blood mononuclear cells (PBMC) by ELISA. […] For IL-17A and IL-22 assays, Examples 23, 80, and 101 were serially diluted from 10 mM in DMSO and further diluted in assay media to 100× the required final concentration, of which, 2 μL was added per well to a round-bottom 96-well tissue culture plate where the final DMSO concentration per well was 0.1%. CD2, CD3, and CD28 antibody-coated beads from the T-cell activation/expansion kit (Miltenyi Biotec) were added to the PBMC at a bead-to-cell ratio of 1:2.\n(§1) The mixture of PBMCs and beads were seeded into the wells of the round-bottom 96-well plate at a concentration of 2×10^5 cells/well in a total volume of 200 μL. The cells were cultured for 72 hours at 37° C. and 5% CO2 and then supernatants were collected and IL-17A and IL-22 levels were measured by ELISA. For the CXCL10 assay, Examples 23, 80, and 101 were serially diluted from 10 mM in DMSO and further diluted in assay media to 100× the required final concentration, of which 2 μL was added per well to a 96-well tissue culture plate. The final compound concentration ranged from 30,000 nM to 0.005 nM and the final DMSO concentration per well was 0.3%. PBMCs were seeded at approximately 2×10^5 cells/well in the wells of the 96-well tissue culture plate in a total volume of 190 μL. The plate was incubated for 1 hour at 37° C. and 5% CO2. The cells were then stimulated with IFN-γ (15 ng/mL final concentration) in a volume of 10 μL. The cells were then cultured for 24 hours at 37° C. and 5% CO2. The supernatant was collected and CXCL10 levels were measured by ELISA."}, "IL-17A": {"tested_on": "IL-17A", "assay": "IL-17A levels by ELISA in stimulated human peripheral blood mononuclear cells", "assay_type": "cell-based", "details": "Homo sapiens, PBMC", "protocol": "(§2) CD2, CD3, and CD28 antibody-coated beads from the T-cell activation/expansion kit (Miltenyi Biotec) were added to the PBMC at a bead-to-cell ratio of 1:2.\nas §1, with “For the CXCL10 assay, Examples 23, 80, and 101 were serially diluted from 10 mM in DMSO and further diluted in assay media to 100× the required final concentration, of which 2 μL was added per well to a 96-well tissue culture plate.” left out, “The cells were then stimulated with IFN-γ (15 ng/mL final concentration) in a volume of 10 μL.” left out"}, "[1]": {"tested_on": "rat anti-collagen IgG1 antibodies", "assay": "Rat anti-collagen IgG1 antibodies in serum of CIA rats at day 21", "assay_type": "in vivo, Lewis rat", "details": "Group 4 (CIA + GSK620)", "experimental": "Blood was additionally collected from groups 1-7 via cardiac puncture following euthanasia on Day 21. […] Serum was divided into two separate tubes and stored at −75±15° C. One tube was used to analyze IgG1, and the other tube was reserved for additional analyses."}, "IL-22": {"tested_on": "IL-22", "assay": "IL-22 levels by ELISA in stimulated human peripheral blood mononuclear cells", "assay_type": "cell-based", "details": "Homo sapiens, PBMC", "protocol": "as §2\nas §1, with “For the CXCL10 assay, Examples 23, 80, and 101 were serially diluted from 10 mM in DMSO and further diluted in assay media to 100× the required final concentration, of which 2 μL was added per well to a 96-well tissue culture plate.” left out, “The cells were then stimulated with IFN-γ (15 ng/mL final concentration) in a volume of 10 μL.” left out"}, "[2]": {"tested_on": "collagen-induced arthritis", "assay": "Histopathologic analysis of H&E-stained hind limbs of CIA rats", "assay_type": "in vivo, Lewis rat", "text": "Hind limbs were collected following euthanasia, with the left limb being used for H&E staining.\nH&E-stained slides of designated tissues from animals were transferred to an independent pathologist for microscopic evaluation (SPFBio). Samples were assigned the histologic grades based on the severity of change from tissue where CIA was not induced. Histology grades assigned were as follows: grade 1 (minimal change), grade 2 (mild change), grade 3 (moderate change), grade 4 (marked change), and grade 5 (severe change).\nModerate inflammation was also associated with increased edema fluid, fibrin, and cellular debris. Marked mixed cell inflammation was characterized by dense, widespread accumulations of neutrophils and macrophages with lesser number of lymphocytes within one or more joint spaces, synovium and periarticular soft tissues. Marked inflammation was also associated with abundant edema fluid, fibrin, and cellular debris.\nMarked granulation tissue (pannus) was associated with inflammation and was characterized by widespread fibrovascular connective tissue that expanded/replaced the periarticular soft tissues of one or more joints, extended into/expanded joint spaces, was contiguous with areas of erosion/ulcer in articular cartilage and/or increased eroded surface of bone, and variably extended along the diaphysis.\nInstances of minimal increased eroded surface were not associated with fragments of bone contiguous and/or surrounded by granulation tissue. […] In some areas, increased eroded surfaces were contiguous with areas of erosion/ulcer in the articular cartilages. Instance of marked increased eroded surface were often associated with fragments of bone contiguous with and/or surrounded by granulation tissue.\nThis observation was typically most pronounced at joint margins (transition zone). The ulceration was often associated with inflammation and granulation tissue extending through the defect to the subchondral bone.\nMarked increased periosteal bone (periosteal bone formation) was characterized by extensive areas of increased bone matrix and numerous prominent osteoblasts lining trabecular surfaces along the metaphysis and/or diaphysis of one or more bones. In some areas, increased periosteal bone was contiguous with increased eroded surface and/or erosion/ulcer at articular cartilage."}, "[3]": {"details": "CIA rats, daily P.O. (group 4), hind limb H&E"}, "[4]": {"details": "hind limbs, CIA induced, 8 animals examined"}}, "note": "Values joined by “and” are separate entries in the source; they are usually repeats but may differ in a detail not shown here. Identical values can stand only once. Like-named read-outs stand apart in the source and are kept apart here. Marks after values point to notes of the source that are not given here."}
{"molecule": "CNC(=O)c1cc(C(=O)NC2CC2)cn(Cc2ccccc2)c1=O", "note": "[GSK620]", "values": [{"measurement": "IC50", "setting": "CXCL10; Test Subject 1, read-out: CXCL10 IC50", "value": "> 30000", "unit": "nM"}, {"measurement": "IC50", "setting": "CXCL10; Test Subject 2, read-out: CXCL10 IC50", "value": "> 30000", "unit": "nM"}, {"measurement": "IC50", "setting": "CXCL10; Test Subject 3, read-out: CXCL10 IC50", "value": "> 30000", "unit": "nM"}, {"measurement": "IC50", "setting": "CXCL10; mean of test subjects, read-out: CXCL10 IC50 Mean", "value": "> 30000", "unit": "nM"}, {"measurement": "IC50", "setting": "IL-17A; Test Subject 1, read-out: IL-17A IC50", "value": 80.5, "unit": "nM"}, {"measurement": "IC50", "setting": "IL-17A; Test Subject 2, read-out: IL-17A IC50", "value": 59.7, "unit": "nM"}, {"measurement": "IC50", "setting": "IL-17A; Test Subject 3, read-out: IL-17A IC50", "value": 139, "unit": "nM"}, {"measurement": "IC50", "setting": "IL-17A; mean of test subjects, read-out: IL-17A IC50 Mean", "value": 93.2, "unit": "nM"}, {"measurement": "Average rat anti-collagen IgG1 levels, Mean", "setting": "[1]; day 21, group mean", "value": "7532.82*"}, {"measurement": "Final Rat Anti-Collagen IgG1 Antibody Con.", "setting": "[1]; day 21, per animal", "value": "9149.39 units/ml and 10971.56 units/ml and 258.62 units/ml and 1400.18 units/ml and 15017.25 units/ml and 2682.44 units/ml and 9308.00 units/ml and 11475.12 units/ml"}, {"measurement": "Rat Anti-Collagen IgG1 Antibody Con.", "setting": "[1]; before multiplying by Fold 2000, day 21, per animal", "value": "4.57 units/ml and 5.49 units/ml and 0.13 units/ml and 0.70 units/ml and 7.51 units/ml and 1.34 units/ml and 4.65 units/ml and 5.74 units/ml"}, {"measurement": "IC50", "setting": "IL-22; Test Subject 1, read-out: IL-22 IC50", "value": 231, "unit": "nM"}, {"measurement": "IC50", "setting": "IL-22; Test Subject 2, read-out: IL-22 IC50", "value": 21.6, "unit": "nM"}, {"measurement": "IC50", "setting": "IL-22; Test Subject 3, read-out: IL-22 IC50", "value": 106, "unit": "nM"}, {"measurement": "IC50", "setting": "IL-22; mean of test subjects, read-out: IL-22 IC50 Mean", "value": 120, "unit": "nM"}, {"measurement": "erosion/ulcer in articular cartilage", "setting": "[2]; [3]", "value": "mild and mild to moderate"}, {"measurement": "granulation tissue (pannus)", "setting": "[2]; [3]", "value": "mild and mild to moderate"}, {"measurement": "increased eroded surface of bone (bone resorption)", "setting": "[2]; [3]", "value": "mild and minimal to moderate"}, {"measurement": "increased periosteal bone (periosteal bone formation)", "setting": "[2]; [3]", "value": "mild and mild to moderate"}, {"measurement": "mixed cell inflammation", "setting": "[2]; [3]", "value": "moderate"}, {"measurement": "pathologic observations after microscopic evaluation, overall", "setting": "[2]; CIA rats, daily P.O. for 21 days", "value": "at a lower level relative to samples from animals in the CIA-induced group"}, {"measurement": "Number of animals: Erosion/Ulcer, cartilaginous, Marked", "setting": "[2]; [4]", "value": 0}, {"measurement": "Number of animals: Erosion/Ulcer, cartilaginous, Mild", "setting": "[2]; [4]", "value": 6}, {"measurement": "Number of animals: Erosion/Ulcer, cartilaginous, Minimal", "setting": "[2]; [4]", "value": 0}, {"measurement": "Number of animals: Erosion/Ulcer, cartilaginous, Moderate", "setting": "[2]; [4]", "value": 2}, {"measurement": "Number of animals: Granulation tissue, Marked", "setting": "[2]; [4]", "value": 0}, {"measurement": "Number of animals: Granulation tissue, Mild", "setting": "[2]; [4]", "value": 4}, {"measurement": "Number of animals: Granulation tissue, Minimal", "setting": "[2]; [4]", "value": 0}, {"measurement": "Number of animals: Granulation tissue, Moderate", "setting": "[2]; [4]", "value": 4}, {"measurement": "Number of animals: Increased bone, periosteum, Marked", "setting": "[2]; [4]", "value": 0}, {"measurement": "Number of animals: Increased bone, periosteum, Mild", "setting": "[2]; [4]", "value": 6}, {"measurement": "Number of animals: Increased bone, periosteum, Minimal", "setting": "[2]; [4]", "value": 0}, {"measurement": "Number of animals: Increased bone, periosteum, Moderate", "setting": "[2]; [4]", "value": 2}, {"measurement": "Number of animals: Increased eroded surface, bone, Marked", "setting": "[2]; [4]", "value": 0}, {"measurement": "Number of animals: Increased eroded surface, bone, Mild", "setting": "[2]; [4]", "value": 4}, {"measurement": "Number of animals: Increased eroded surface, bone, Minimal", "setting": "[2]; [4]", "value": 1}, {"measurement": "Number of animals: Increased eroded surface, bone, Moderate", "setting": "[2]; [4]", "value": 3}, {"measurement": "Number of animals: Mixed cell inflammation, Marked", "setting": "[2]; [4]", "value": 0}, {"measurement": "Number of animals: Mixed cell inflammation, Mild", "setting": "[2]; [4]", "value": 0}, {"measurement": "Number of animals: Mixed cell inflammation, Minimal", "setting": "[2]; [4]", "value": 0}, {"measurement": "Number of animals: Mixed cell inflammation, Moderate", "setting": "[2]; [4]", "value": 8}, {"measurement": "Number of animals: No Visible Lesions", "setting": "[2]; [4]", "value": 0}]}
